The target of test [1] is T1, maltose-inducible α-glucosidase (MalL) (Bacillus subtilis, UniProt O06994).
T1 construct: full-length, recombinant, purified as in earlier work
As to the kind of experiment: ensemble steady-state kinetics, colorimetric assay in solution. In kind it is biochemical. Conditions: free enzyme in solution; temperature of this constant not given. An excerpt: ensemble steady-state kinetics, colorimetric assay in solution on maltose-inducible α-glucosidase (MalL) | both the KM and ΔCP^‡ values are similar between WT MalL and S135C MalL

Test [2] deals with T2, maltose-inducible α-glucosidase (MalL) (Bacillus subtilis, UniProt O06994, S135C).
T2 construct: full-length, recombinant, purified as in earlier work
Described as above. In kind it is biochemical. Particulars: free enzyme in solution; temperature of this constant not given.

The results in this text go back to article PMC8165693, “Sensing Enzyme Activation Heat Capacity at the Single-Molecule Level Using Gold-Nanorod-Based Optical Whispering Gallery Modes” (ACS Applied Nano Materials, 2021).

T2 sequence (O06994 whole entry S135C): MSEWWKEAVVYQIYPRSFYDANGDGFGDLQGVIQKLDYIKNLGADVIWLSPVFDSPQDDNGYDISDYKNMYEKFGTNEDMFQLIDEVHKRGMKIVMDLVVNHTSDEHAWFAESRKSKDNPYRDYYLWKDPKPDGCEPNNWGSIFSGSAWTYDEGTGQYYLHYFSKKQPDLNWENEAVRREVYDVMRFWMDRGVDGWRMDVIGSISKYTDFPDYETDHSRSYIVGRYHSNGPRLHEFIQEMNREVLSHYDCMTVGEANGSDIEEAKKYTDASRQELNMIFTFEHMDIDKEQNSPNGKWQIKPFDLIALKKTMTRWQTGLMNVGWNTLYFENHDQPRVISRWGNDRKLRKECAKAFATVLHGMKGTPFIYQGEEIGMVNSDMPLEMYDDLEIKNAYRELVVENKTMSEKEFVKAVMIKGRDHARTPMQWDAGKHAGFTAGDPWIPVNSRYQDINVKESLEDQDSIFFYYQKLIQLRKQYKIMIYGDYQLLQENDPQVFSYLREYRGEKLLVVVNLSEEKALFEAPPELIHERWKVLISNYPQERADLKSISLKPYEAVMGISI
T1 sequence (O06994 whole entry): as the sequence (O06994 whole entry S135C) above, with C135S counted along it

A word on the Km: it is the concentration of substrate that gives half-maximal velocity. For the substance 4-nitrophenyl-β-D-glucopyranoside, the Km in test [1] was found to be 108 ± 34.2 µM; in test [2], 141 ± 39.6 µM.
